From PMC2917805 (Journal of medicinal chemistry, 2010)

How the values were obtained:
iNOS protein expression = assay: Western blot of iNOS expression in LPS-stimulated RAW 264.7 cells; format: cell-based; conditions: 34 μM; for effect on iNOS protein expression: LPS-stimulated RAW 264.7 cells; for relative iNOS protein expression: relative to LPS-treated control, LPS 1 μg/mL, 18 h
[1] = Stability in RPMI 1640 cell culture medium; format: physicochemical
[2] = tested on: HL-60 human acute leukemia cells; assay: Cell cycle analysis, subG1 accumulation; format: cell-based
[3] = DPPH free-radical scavenging
[4] = tested on: quinone reductase 1 (QR1); assay: QR activity in cell culture; format: cell-based, murine; conditions: Hepa 1c1c7 cells
[5] = cell culture medium, 37 °C, 24 h

| Compound | effect on iNOS protein expression (iNOS protein expression) | QR1 CD (concentration to double the expression of QR1) [4] | relative iNOS protein expression (iNOS protein expression) | further results |
| --- | --- | --- | --- | --- |
| Oc1ccc(/C=C/c2cc(O)cc(O)c2)cc1 [Resveratrol, 3,5,4′-trihydroxystilbene, reference compound] | moderately suppressed the expression of iNOS |  |  | remaining at 0 h ([1]; RPMI 1640 cell culture medium): 100 ± 0.3%; remaining at 24 h ([1]; RPMI 1640 cell culture medium): 46.8 ± 8.7%; degradation during 24 h [1, 5]: ~ 50%; accumulation of HL-60 cells in subG1 [2]: active |
| O=S(=O)([O-])Oc1ccc(/C=C/c2cc(OS(=O)(=O)[O-])cc(OS(=O)(=O)[O-])c2)cc1.[K+].[K+].[K+] [compound 2, Resveratrol Tripotassium 3,5,4′-Sulfate] |  | > 11.7 µM |  | DPPH free radical scavenging [3]: inactive |
| O=S(=O)([O-])Oc1ccc(/C=C/c2cc(O)cc(OS(=O)(=O)[O-])c2)cc1.[K+].[K+] [compound 3, Resveratrol Dipotassium 3,4′-Sulfate] |  | > 10.1 µM |  |  |
| O=S(=O)([O-])Oc1cc(/C=C/c2ccc(O)cc2)cc(OS(=O)(=O)[O-])c1.[K+].[K+] [compound 4, Resveratrol Tripotassium 3,5-Sulfate] |  | > 10.1 µM |  |  |
| O=S(=O)([O-])Oc1cc(O)cc(/C=C/c2ccc(O)cc2)c1.[K+] [compound 5, Resveratrol Potassium 3-Sulfate] | moderately suppressed the expression of iNOS |  | 0.54 |  |
| O=S(=O)([O-])Oc1ccc(/C=C/c2cc(O)cc(O)c2)cc1.[K+] [compound 7, Resveratrol Potassium 4′-Sulfate] | moderately suppressed the expression of iNOS | > 6.9 µM | 0.67 | remaining at 0 h ([1]; buffer): 100 ± 2.2%; remaining at 12 h ([1]; buffer): 95.1 ± 3%; remaining at 24 h ([1]; buffer): 98.8 ± 3.1%; stability [1, 5]: stable for 24 h |
